The values that follow are results of earlier work, collected in patent US12414914B2, “Docetaxel composition for injection and preparation method therefor” (BIKA BIOTECHNOLOGY (GUANGZHOU) CO., LTD, priority 2018, dated 2025).

Data set [1] concerns microtubules. The note with it: compared to paclitaxel.
The next data set deals with cancer cells. The note with it: compared to paclitaxel.
Data set [2] concerns microtubules.

The structures appear in SMILES notation.

`CC(=O)O[C@@]12CO[C@@H]1C[C@H](O)[C@@]1(C)C(=O)[C@H](O)C3=C(C)[C@@H](OC(=O)[C@H](O)[C@@H](NC(=O)OC(C)(C)C)c4ccccc4)C[C@@](O)([C@@H](OC(=O)c4ccccc4)[C@H]21)C3(C)C` (relative stereo) [docetaxel, [2aR-(2aα, 4β, 4aβ, 6β, 9α, (aR*, βS*), 11α, 12α, 12aα, 12bα)]-β-[[(1,1-dimethylethoxy)carbonyl]amino]-α-hydroxybenzene propanoic acid [12b-acetyloxy-12-benzoyloxy-2a, 3,4,4a, 5,6,9, 10, 11, 12, 12a, 12b-dodecahydro-4,6, 11-trihydroxy-4a, 8, 13, 13-tetramethyl-5-oxo-7, 11-methano-1H-cyclodeca-[3, 4]benz [1,2-b]oxet-9-yl] ester]: for the setting “alkaline conditions”, the “stability in alkaline conditions” value is “unstable in alkaline conditions”. Under “ethanol”, the solubility in ethanol result is on record as “soluble in ethanol”. For the same compound, for the setting “water”, the solubility in water result is “practically insoluble in water”. In addition, in the data set with microtubules [1], the “activity as microtubule stabilizer and assembly promoter relative to paclitaxel” value is given as “twice as active as paclitaxel”; the “activity as microtubule-depolymerizing inhibitor relative to paclitaxel” value is “twice as active as paclitaxel”. Besides, the “anti-tumor activity in vitro relative to paclitaxel” value in the data set with cancer cells was 1.3˜12 times more active. In addition, the “Affinity to microtubules compared to paclitaxel” value in the data set with microtubules [2] was 2 times higher.
